{"source": "paper PMC5471252", "about": "“Anti-leukemia activity of a Hsp70 inhibitor and its hybrid molecules” (Scientific Reports, 2017)", "key": {"[1]": {"test_system": "human leukemia cells (HL-60, KG-1, THP-1, U937, Jurkat and K562 cells)", "test": "MTT assay, all tested leukemia cells (summary statements)", "settings": "all tested leukemia cells, MTT, compared with Az, GD and imatinib", "description": "To assess anti-leukemia activity of Az, several human leukemia cells (HL-60 cells, acute myeloid leukemia; Jurkat cells, acute T-lymphocytic leukemia; KG-1 cells, acute myeloid leukemia; U937 cells, acute myeloid leukemia; THP-1 cells, acute monocytic leukemia; K562 cells, chronic myeloid leukemia) were incubated with Az for 48 h. […] An MTT assay was then performed to measure cell viabilities.\nCells were exposed to each compound (a HCl salt form) at various concentrations for indicated time periods (24 or 48 h) in culture media. MTT assays were conducted according to known procedures. The absorbance at 570 nm was determined by employing a microplate reader (TECAN, Infinite® 200 PRO)."}, "ATPase domain of Hsp70": {"biological_target": "T1, ATPase domain of Hsp70 (Homo sapiens, UniProt P0DMV8)", "T1 construct": "mixed with 2 µg of an ATPase domain of Hsp70", "T1 sequence (P0DMV8 2-386 limits assumed)": "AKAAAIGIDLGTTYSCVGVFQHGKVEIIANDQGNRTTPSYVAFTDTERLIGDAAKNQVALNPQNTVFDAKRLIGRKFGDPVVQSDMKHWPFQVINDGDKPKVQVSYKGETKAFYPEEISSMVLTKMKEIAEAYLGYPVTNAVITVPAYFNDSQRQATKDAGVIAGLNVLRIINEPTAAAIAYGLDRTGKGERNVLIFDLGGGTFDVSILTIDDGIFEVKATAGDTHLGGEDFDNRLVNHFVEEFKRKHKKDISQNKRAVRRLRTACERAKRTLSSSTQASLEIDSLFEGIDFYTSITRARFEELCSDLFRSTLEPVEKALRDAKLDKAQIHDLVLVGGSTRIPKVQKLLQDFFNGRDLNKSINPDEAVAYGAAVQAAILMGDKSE", "test": "PiColorLock ATPase assay, Hsp70", "format": "biochemical", "settings": "10, 20 and 40 µM compound, 10 µM ATP, compared with Az", "description": "(§1) Inhibition by the hybrids on the ATPase activities of Hsp70 and Hsp90 was determined by using a PiColorLock assay and on the kinase activity of Abl by using a radiometric assay.\nATPase assays. ATPase assays were conducted in 20 mM Tris-HCl, 10 mM MgCl2 and 100 mM KCl buffer solution mixed with 2 µg of an ATPase domain of Hsp70. Each compound (10, 20 and 40 µM) was added to the protein solution in a 96-well plate. After the mixture was placed in the plate for 30 min at room temperature, 10 µM ATP was added to the mixture and the mixture was incubated for 3 h at 37 °C. To measure ATPase activity, 10 µl of a 1:100 mixture of PiColorLock Gold reagent (Innova Biosciences) and an accelerator was added to each well. After 5 min at room temperature, 4 µL of a stabilizer was added to the mixture and then incubated for additional 30 min before taking measurement. The absorbance at 620nm was measured by using an Infinite® 200 PRO multimode microplate reader. The same procedure was used to measure ATPase activity of Hsp90 except concentrations of protein (1 µg) and ATP (1 mM).\n(§2) Supplementary Figure S10. Inhibitory effect of hybrid molecules on Hsp70, Hsp90 and Abl activities. (a) ATPase activity of Hsp70 was measured by using a Pi-Colorlock assay after incubation of an ATPase domain of Hsp70 with various concentrations of indicated molecules and 10 µM ATP (mean ± s.d., n =3). (b) ATPase activity of Hsp90 was measured by using a Pi-Colorlock assay after incubation of Hsp90 with various concentrations of indicated molecules and 1 mM ATP (mean ± s.d., n = 3). (c) Abl kinase activity was measured by using a radiometric kinase assay after incubation of Abl with a peptide substrate in the presence of various concentrations of indicated molecules and γ-^33P-ATP (mean ± s.d., n =3)."}, "THP-1 cells": {"test_system": "THP-1 cells", "test": "MTT assay, cell viability of THP-1 cells", "format": "cell-based", "settings": "Homo sapiens, 48 h, mean ± s.d., n = 3, read-out: IC50 values of compounds for leukemia cells"}, "Jurkat cells": {"test_system": "Jurkat cells", "test": "MTT assay, cell viability of Jurkat cells", "format": "cell-based", "settings": "Homo sapiens, 48 h, mean ± s.d., n = 3, read-out: IC50 values of compounds for leukemia cells"}, "K562 cells": {"test_system": "K562 cells", "test": "MTT assay, cell viability of K562 cells", "format": "cell-based", "settings": "Homo sapiens, 48 h, mean ± s.d., n = 3, read-out: IC50 values of compounds for leukemia cells"}, "U937 cells": {"test_system": "U937 cells", "test": "MTT assay, cell viability of U937 cells", "format": "cell-based", "settings": "Homo sapiens, U-937, 48 h, mean ± s.d., n = 3, read-out: IC50 values of compounds for leukemia cells"}, "HL-60 cells": {"test_system": "HL-60 cells", "test": "MTT assay, cell viability of HL-60 cells", "format": "cell-based", "settings": "Homo sapiens, 48 h, mean ± s.d., n = 3, read-out: IC50 values of compounds for leukemia cells"}, "human recombinant Abl": {"biological_target": "T2, human recombinant Abl (Homo sapiens, UniProt P00519)", "T2 construct": "purchased Eurofins Pharma Discovery Services (UK Limited); host or cells: insect cells", "T2 sequence (P00519 whole entry)": "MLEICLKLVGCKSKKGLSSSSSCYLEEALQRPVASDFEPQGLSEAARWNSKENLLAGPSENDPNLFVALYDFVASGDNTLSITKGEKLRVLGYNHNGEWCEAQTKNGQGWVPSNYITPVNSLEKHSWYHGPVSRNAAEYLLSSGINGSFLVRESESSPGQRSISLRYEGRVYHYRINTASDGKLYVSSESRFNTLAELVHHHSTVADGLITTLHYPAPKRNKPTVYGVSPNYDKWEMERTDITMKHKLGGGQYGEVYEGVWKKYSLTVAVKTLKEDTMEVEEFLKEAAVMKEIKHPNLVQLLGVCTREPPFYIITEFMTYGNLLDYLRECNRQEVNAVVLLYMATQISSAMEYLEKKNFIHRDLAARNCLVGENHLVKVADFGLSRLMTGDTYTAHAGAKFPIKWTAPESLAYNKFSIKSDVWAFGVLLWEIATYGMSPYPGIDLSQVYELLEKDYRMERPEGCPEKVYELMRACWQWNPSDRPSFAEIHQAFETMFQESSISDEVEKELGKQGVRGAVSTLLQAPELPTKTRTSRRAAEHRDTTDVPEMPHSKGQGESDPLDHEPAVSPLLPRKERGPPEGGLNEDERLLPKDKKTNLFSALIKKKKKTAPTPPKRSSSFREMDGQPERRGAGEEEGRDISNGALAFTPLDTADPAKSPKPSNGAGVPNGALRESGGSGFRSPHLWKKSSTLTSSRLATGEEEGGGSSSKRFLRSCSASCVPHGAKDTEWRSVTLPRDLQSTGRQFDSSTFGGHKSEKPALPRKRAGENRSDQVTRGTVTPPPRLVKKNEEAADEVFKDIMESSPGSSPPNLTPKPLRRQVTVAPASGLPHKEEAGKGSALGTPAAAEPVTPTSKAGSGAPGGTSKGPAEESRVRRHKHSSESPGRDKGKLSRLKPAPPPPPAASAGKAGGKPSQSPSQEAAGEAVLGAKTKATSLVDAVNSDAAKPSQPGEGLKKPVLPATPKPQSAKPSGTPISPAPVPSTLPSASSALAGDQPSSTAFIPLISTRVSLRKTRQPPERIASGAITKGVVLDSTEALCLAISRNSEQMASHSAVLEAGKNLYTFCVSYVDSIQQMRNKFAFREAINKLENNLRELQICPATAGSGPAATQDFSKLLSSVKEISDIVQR", "test": "Radiometric Abl kinase assay", "format": "biochemical", "settings": "compared with imatinib", "description": "as §1\nAbl kinase assays. Abl kinase assays were conducted by Eurofins Pharma Discovery Services (UK Limited). Briefly, each compound was pre-incubated with 0.25 µg/mL of human recombinant Abl (expressed in insect cells) in 20 mM MOPS containing 1 mM EDTA, 0.01% Brij-35, 5% glycerol, 0.1% β-mercaptoethanol and 1 mg/mL BSA for 15 min at 37 °C. To the enzyme mixture was added 0.2 mg/mL of poly(Glu:Tyr), 10 µM ATP and 0.25 µCi [γ^33P]ATP. After incubation for 30 min, 3% H3PO4 was added to the mixture to stop enzyme reactions. An aliquot was removed and counted to determine the amount of [^33P]poly(Glu:Tyr) formed by using a Trilux scintillation counter (Wallac Microbeta 12-detector model, Perkin Elmer).\nas §2, with “(c) Abl kinase activity was measured by using a radiometric kinase assay after incubation of Abl with a peptide substrate in the presence of various concentrations of indicated molecules and γ-^33P-ATP (mean ± s.d., n =3).” left out"}, "KG-1 cells": {"test_system": "KG-1 cells", "test": "MTT assay, cell viability of KG-1 cells", "format": "cell-based", "settings": "Homo sapiens, 48 h, mean ± s.d., n = 3, read-out: IC50 values of compounds for leukemia cells"}, "HL-60 and K562 cells": {"test_system": "HL-60 and K562 cells", "test": "Flow cytometry, fluorescein-annexin V and PI staining", "format": "cell-based, human", "settings": "24 h; 10 µM Az, 10 µM GD or 4 µM Az-O3-GD", "description": "To determine whether Az promotes leukemia cell death via apoptosis, acute leukemia HL-60 and chronic leukemia K562 cells were independently incubated with Az. The treated cells were then exposed to a mixed solution of fluorescein-annexin V and propidium iodide (PI) and flow cytometry analysis was conducted. […] The size of the treated cells was also assessed by using flow cytometry. […] We also investigated if the mitochondrial membrane potential in cells treated with Az is disrupted. To test this possibility, HL-60 and K562 cells were exposed to Az and subsequently stained with a membrane potential sensitive JC-1 probe. […] This serves as another evidence for apoptosis induced by Az.\nHL-60 and K562 cells were incubated with each compound for 24 h in culture media. Cells were re-suspended with 500 μL binding buffer (10 mM HEPES, […] and 2.5 mM CaCl2, pH 7.5) and then incubated with the FITC-annexin V apoptosis detection kit with PI according to the protocol provided by the manufacturer. Flow cytometry was carried out by using a BD FACSVerse™ instrument (BD Biosciences) and the data were analyzed by using a FlowJo™ software (BD Biosciences)."}}}
{"smiles": "COc1ccc(-c2nc(-c3cc(C(F)(F)F)cc(C(F)(F)F)c3)n(Cc3ccc(C(=O)NCCOCCOCCNC(=O)COCCOCCOCCNC4=C5C[C@@H](C)C[C@H](OC)[C@H](O)[C@@H](C)/C=C(\\C)[C@H](OC(N)=O)[C@@H](OC)/C=C\\C=C(/C)C(=O)NC(=CC4=O)C5=O)cc3)c2-c2ccc(OC)cc2)cc1", "note": "[Az-amide-GD]", "values": [{"measurement": "cytotoxicity relative to the individual inhibitors", "setting": "[1]", "result": "poorer cytotoxicity"}, {"measurement": "inhibition of the ATPase activity of Hsp70", "setting": "ATPase domain of Hsp70", "result": "lower inhibitory activity towards Hsp70 than Az"}]}
{"smiles": "COc1ccc(-c2nc(-c3cc(C(F)(F)F)cc(C(F)(F)F)c3)n(Cc3ccc(C(=O)NCCOCCOCCOCCOCCN4CCN(Cc5ccc(C(=O)Nc6ccc(C)c(Nc7nccc(-c8cccnc8)n7)c6)cc5)CC4)cc3)c2-c2ccc(OC)cc2)cc1", "note": "[Az-O4-Imatinib]", "values": [{"measurement": "IC50", "setting": "THP-1 cells", "result": "> 10000", "unit": "nM"}, {"measurement": "IC50", "setting": "Jurkat cells", "result": "> 10", "unit": "µM"}, {"measurement": "IC50", "setting": "K562 cells", "result": "4.5 ± 0.88", "unit": "µM"}, {"measurement": "cytotoxicity relative to the individual inhibitors", "setting": "[1]", "result": "poorer cytotoxicity"}, {"measurement": "IC50", "setting": "U937 cells", "result": "> 10", "unit": "µM"}, {"measurement": "IC50", "setting": "HL-60 cells", "result": "> 10000", "unit": "nM"}, {"measurement": "inhibitory activity towards Abl kinase", "setting": "human recombinant Abl", "result": "significantly reduced inhibitory activities towards Abl kinase compared to imatinib"}, {"measurement": "IC50", "setting": "KG-1 cells", "result": "> 10", "unit": "µM"}, {"measurement": "inhibition of the ATPase activity of Hsp70", "setting": "ATPase domain of Hsp70", "result": "much weaker inhibitors of Hsp70 compared to Az"}]}
{"smiles": "COc1ccc(-c2nc(-c3cc(C(F)(F)F)cc(C(F)(F)F)c3)n(Cc3ccc(C(=O)NCCOCCOCCNC4=C5C[C@@H](C)C[C@H](OC)[C@H](O)[C@@H](C)/C=C(\\C)[C@H](OC(N)=O)[C@@H](OC)/C=C\\C=C(/C)C(=O)NC(=CC4=O)C5=O)cc3)c2-c2ccc(OC)cc2)cc1", "note": "[Az-GD]", "values": [{"measurement": "IC50", "setting": "THP-1 cells", "result": "360 ± 120", "unit": "nM"}, {"measurement": "IC50", "setting": "Jurkat cells", "result": "0.89 ± 0.25", "unit": "µM"}, {"measurement": "IC50", "setting": "K562 cells", "result": "0.63 ± 0.21", "unit": "µM"}, {"measurement": "cytotoxicity relative to the individual inhibitors", "setting": "[1]", "result": "greatly enhanced cytotoxicities"}, {"measurement": "IC50", "setting": "U937 cells", "result": "1.12 ± 0.32", "unit": "µM"}, {"measurement": "IC50", "setting": "HL-60 cells", "result": "730 ± 220", "unit": "nM"}, {"measurement": "IC50", "setting": "KG-1 cells", "result": "0.91 ± 0.41", "unit": "µM"}]}
{"smiles": "COc1ccc(-c2nc(-c3cc(C(F)(F)F)cc(C(F)(F)F)c3)n(Cc3ccc(C(=O)NCCOCCOCCOCCN4CCN(Cc5ccc(C(=O)Nc6ccc(C)c(Nc7nccc(-c8cccnc8)n7)c6)cc5)CC4)cc3)c2-c2ccc(OC)cc2)cc1", "note": "[Az-O3-Imatinib]", "values": [{"measurement": "IC50", "setting": "THP-1 cells", "result": "> 10000", "unit": "nM"}, {"measurement": "IC50", "setting": "Jurkat cells", "result": "> 10", "unit": "µM"}, {"measurement": "IC50", "setting": "K562 cells", "result": "4.3 ± 0.91", "unit": "µM"}, {"measurement": "cytotoxicity relative to the individual inhibitors", "setting": "[1]", "result": "poorer cytotoxicity"}, {"measurement": "IC50", "setting": "U937 cells", "result": "> 10", "unit": "µM"}, {"measurement": "IC50", "setting": "HL-60 cells", "result": "> 10000", "unit": "nM"}, {"measurement": "inhibitory activity towards Abl kinase", "setting": "human recombinant Abl", "result": "significantly reduced inhibitory activities towards Abl kinase compared to imatinib"}, {"measurement": "IC50", "setting": "KG-1 cells", "result": "> 10", "unit": "µM"}, {"measurement": "inhibition of the ATPase activity of Hsp70", "setting": "ATPase domain of Hsp70", "result": "much weaker inhibitors of Hsp70 compared to Az"}]}
{"smiles": "COC1=C2C[C@@H](C)C[C@H](OC)[C@H](O)[C@@H](C)/C=C(\\C)[C@H](OC(N)=O)[C@@H](OC)/C=C\\C=C(/C)C(=O)NC(=CC1=O)C2=O", "note": "[GD, geldanamycin, reference compound]", "values": [{"measurement": "apoptosis, annexin V binding and PI uptake", "setting": "HL-60 and K562 cells", "result": "induces apoptosis"}, {"measurement": "IC50", "setting": "THP-1 cells", "result": "900 ± 330", "unit": "nM"}, {"measurement": "IC50", "setting": "Jurkat cells", "result": "4.8 ± 1.06", "unit": "µM"}, {"measurement": "IC50", "setting": "K562 cells", "result": "3.7 ± 1.11", "unit": "µM"}, {"measurement": "IC50", "setting": "U937 cells", "result": "4.8 ± 1.22", "unit": "µM"}, {"measurement": "IC50", "setting": "HL-60 cells", "result": "2300 ± 740", "unit": "nM"}, {"measurement": "IC50", "setting": "KG-1 cells", "result": "3.2 ± 1.21", "unit": "µM"}]}
